target: STAT3 (Homo sapiens, UniProt P40763); assay: STAT3 HiBiT degradation assay in transfected A549 cells; assay type: cell-based; parameters: expressed in transfected cells; host or cells: A549; conditions: A549, 24 h; read-out: STAT3 HiBiT A549 degradation 24 h: Average external-Abs DC50
In short: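 Degradation read as HiBiT-tagged STAT3 luminescence (Nano-Glo lytic reagent, 10 min, room temperature) following 24 h compound treatment of transfected A549 cells at 3-fold, 10 points. Percent remaining signal computed against controls and fitted with a four-parameter logistic; DC50 reported as letter bins (A <0.01 to D >1.0 µM).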

Sequence of STAT3 (P40763 whole entry): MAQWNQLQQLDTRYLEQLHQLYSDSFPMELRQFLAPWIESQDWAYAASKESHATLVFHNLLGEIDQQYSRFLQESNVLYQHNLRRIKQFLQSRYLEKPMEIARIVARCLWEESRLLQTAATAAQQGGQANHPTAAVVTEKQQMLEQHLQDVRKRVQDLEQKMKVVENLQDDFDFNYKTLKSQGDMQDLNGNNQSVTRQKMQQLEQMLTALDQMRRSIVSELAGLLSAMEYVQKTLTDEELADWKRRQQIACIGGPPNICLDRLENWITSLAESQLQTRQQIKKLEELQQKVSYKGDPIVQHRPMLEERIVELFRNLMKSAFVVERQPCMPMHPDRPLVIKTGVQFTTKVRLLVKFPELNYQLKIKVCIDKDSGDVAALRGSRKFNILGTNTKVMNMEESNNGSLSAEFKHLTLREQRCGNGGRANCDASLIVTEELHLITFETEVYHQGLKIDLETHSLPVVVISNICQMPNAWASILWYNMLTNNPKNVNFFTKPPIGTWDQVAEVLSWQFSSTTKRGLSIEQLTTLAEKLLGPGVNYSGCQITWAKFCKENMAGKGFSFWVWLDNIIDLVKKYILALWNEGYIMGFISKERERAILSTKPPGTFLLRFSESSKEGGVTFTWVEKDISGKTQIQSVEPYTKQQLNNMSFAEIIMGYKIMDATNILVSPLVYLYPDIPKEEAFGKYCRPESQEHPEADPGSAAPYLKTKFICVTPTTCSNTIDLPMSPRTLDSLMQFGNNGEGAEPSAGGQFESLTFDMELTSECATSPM

**Q.** Which DC50 does the source give for Cc1ncsc1-c1ccc([C@H](C)NC(=O)[C@@H]2C[C@@H](O)CN2C(=O)[C@@H](NC(=O)CCCCc2ccc(CCC[C@H](CCC(N)=O)NC(=O)[C@@H]3Cc4cccc5c4N3C(=O)[C@@H](NC(=O)c3cc4cc(C(=O)P(=O)(O)O)ccc4[nH]3)CC5)cc2)C(C)(C)C)cc1 [Compound I-237, diammonium 2-[[(2S,11S)-2-[[(3R)-1-carbamoyl-6-[4-(4-[[(2S)-1-[(2S,4R)-4-hydroxy-2-[[(1S)-1-[4-(4-methyl-1,3-thiazol-5-yl)phenyl]ethyl]carbamoyl]pyrrolidin-1-yl]-3,3-dimethyl-1-oxobutan-2-yl]carbamoyl]butyl)phenyl]hexan-3-yl]carbamoyl]-12-oxo-1-azatricyclo[6.4.1.0^[4,13]]trideca-4(13),5,7-trien-11-yl]carbamoyl]-1H-indole-5-carbonylphosphonate] here?
**A.** 0.01 to 0.1 µM

**Q.** How did the DC50 turn out when Cc1ncsc1-c1ccc([C@H](C)NC(=O)[C@@H]2C[C@@H](O)CN2C(=O)[C@@H](NC(=O)CCCCCc2ccc([C@H](CCC(N)=O)NC(=O)[C@@H]3Cc4cccc5c4N3C(=O)[C@@H](NC(=O)c3cc4cc(C(=O)P(=O)(O)O)ccc4[nH]3)CC5)nc2)C(C)(C)C)cc1 [Compound I-238] was run?
**A.** 0.1 to 1 µM

**Q.** With Cc1ncsc1-c1ccc([C@H](C)NC(=O)[C@@H]2C[C@@H](O)CN2C(=O)[C@@H](NC(=O)CCCCc2cccc(OC[C@H](CCC(N)=O)NC(=O)[C@@H]3CCCN3C(=O)[C@H](CC(C)C)NC(=O)c3cc4cc(C(=O)P(=O)(O)O)ccc4[nH]3)c2Cl)C(C)(C)C)cc1 [Compound I-239, diammonium 2-[[(2S)-1-[(2S)-2-[[(2S)-4-carbamoyl-1-[2-chloro-3-(4-[[(2S)-1-[(2S,4R)-4-hydroxy-2-[[(1S)-1-[4-(4-methyl-1,3-thiazol-5-yl)phenyl]ethyl]carbamoyl]pyrrolidin-1-yl]-3,3-dimethyl-1-oxobutan-2-yl]carbamoyl]butyl)phenoxy]butan-2-yl]carbamoyl]pyrrolidin-1-yl]-4-methyl-1-oxopentan-2-yl]carbamoyl]-1H-] as the compound, how does the DC50 read?
**A.** < 0.01 µM

**Q.** Cc1ncsc1-c1ccc([C@H](C)NC(=O)[C@@H]2C[C@@H](O)CN2C(=O)[C@@H](NC(=O)CCCc2cccc(OC[C@H](CCC(N)=O)NC(=O)[C@@H]3CCCN3C(=O)[C@H](CC(C)C)NC(=O)c3cc4cc(C(=O)P(=O)(O)O)ccc4[nH]3)c2Cl)C(C)(C)C)cc1 [Compound I-240] was tested. Which DC50 did it give?
**A.** 0.01 to 0.1 µM

**Q.** With Cc1ncsc1-c1ccc([C@H](C)NC(=O)[C@@H]2C[C@@H](O)CN2C(=O)[C@@H](NC(=O)CCCCc2cccc(OC[C@H](CCC(N)=O)NC(=O)[C@@H]3Cc4cccc5c4N3C(=O)[C@@H](NC(=O)c3cc4cc(C(=O)P(=O)(O)O)ccc4[nH]3)CC5)c2Cl)C(C)(C)C)cc1 [Compound I-243] as the compound, how does the DC50 read?
**A.** < 0.01 µM

**Q.** With Cc1ncsc1-c1ccc([C@H](C)NC(=O)[C@@H]2C[C@@H](O)CN2C(=O)[C@@H](NC(=O)CCCCCc2cc(Cl)cc(OC[C@H](CCC(N)=O)NC(=O)[C@@H]3Cc4cccc5c4N3C(=O)[C@@H](NC(=O)c3cc4cc(C(=O)P(=O)(O)O)ccc4[nH]3)CC5)c2F)C(C)(C)C)cc1 [Compound I-244, 2-[[(2S,11S)-2-[[(2S)-4-carbamoyl-1-[5-chloro-2-fluoro-3-(5-[[(2S)-1-[(2S,4R)-4-hydroxy-2-[[(1S)-1-[4-(4-methyl-1,3-thiazol-5-yl)phenyl]ethyl]carbamoyl]pyrrolidin-1-yl]-3,3-dimethyl-1-oxobutan-2-yl]carbamoyl]pentyl)phenoxy]butan-2-yl]carbamoyl]-12-oxo-1-azatricyclo[6.4.1.0^[4,13]]trideca-4(13),5,7-trien-11-yl]carbamoyl]-1H-indole-5-carbonylphosphonic acid] as the compound, how does the DC50 read?
**A.** < 0.01 µM

**Q.** How did the DC50 turn out when Cn1c(=O)n(C2CCC(=O)NC2=O)c2ccc(CC3CCC(Cc4cc5c6c(c4)C[C@@H](C(=O)N[C@@H](CCC(N)=O)C(=O)NC(c4ccccc4)c4ccccc4)N6C(=O)[C@@H](NC(=O)c4cc6cc(C(=O)P(=O)(O)O)ccc6[nH]4)CC5)CC3)cc21 (stereo partly drawn) [Compound I-245, 2-[[(2S,11S)-2-[[(1S)-3-carbamoyl-1-(diphenylmethylcarbamoyl)propyl]carbamoyl]-6-[(4-[[1-(2,6-dioxopiperidin-3-yl)-3-methyl-2-oxo-1,3-benzodiazol-5-yl]methyl]cyclohexyl)methyl]-12-oxo-1-azatricyclo[6.4.1.0^[4,13]]trideca-4(13),5,7-trien-11-yl]carbamoyl]-1H-indole-5-carbonylphosphonic acid] was run?
**A.** 0.1 to 1 µM

**Q.** How did the DC50 turn out when Cc1ncsc1-c1ccc([C@H](C)NC(=O)[C@@H]2C[C@@H](O)CN2C(=O)[C@@H](NC(=O)CCCCc2cccc(NC(=O)C(CCC(N)=O)NC(=O)[C@@H]3Cc4cccc5c4N3C(=O)[C@@H](NC(=O)c3cc4cc(C(=O)P(=O)(O)O)ccc4[nH]3)CC5)c2Cl)C(C)(C)C)cc1 (stereo partly drawn) [Compound I-246, diammonium 2-[[(2S,11S)-2-[(3-carbamoyl-1-[[2-chloro-3-(4-[[(2S)-1-[(2S,4R)-4-hydroxy-2-[[(1S)-1-[4-(4-methyl-1,3-thiazol-5-yl)phenyl]ethyl]carbamoyl]pyrrolidin-1-yl]-3,3-dimethyl-1-oxobutan-2-yl]carbamoyl]butyl)phenyl]carbamoyl]propyl)carbamoyl]-12-oxo-1-azatricyclo[6.4.1.0^[4,13]]trideca-4(13),5,7-trien-11-yl]carbamoyl]-1H-indole-5-carbonylphosphonate] was run?
**A.** 0.01 to 0.1 µM

**Q.** Which DC50 does the source give for Cc1ncsc1-c1ccc([C@H](C)NC(=O)[C@@H]2C[C@@H](O)CN2C(=O)[C@@H](NC(=O)CCCc2cccc(NC(=O)[C@H](CCC(N)=O)NC(=O)[C@@H]3Cc4cccc5c4N3C(=O)[C@@H](NC(=O)c3cc4cc(C(=O)P(=O)(O)O)ccc4[nH]3)CC5)c2Cl)C(C)(C)C)cc1 [Compound I-247, diammonium 2-[[(2S,11S)-2-[[(1S)-3-carbamoyl-1-[[2-chloro-3-(3-[[(2S)-1-[(2S,4R)-4-hydroxy-2-[[(1S)-1-[4-(4-methyl-1,3-thiazol-5-yl)phenyl]ethyl]carbamoyl]pyrrolidin-1-yl]-3,3-dimethyl-1-oxobutan-2-yl]carbamoyl]propyl)phenyl]carbamoyl]propyl]carbamoyl]-12-oxo-1-azatricyclo[6.4.1.0^[4,13]]trideca-4(13),5,7-trien-11-yl]carbamoyl]-1H-indole-5-carbonylphosphonate] here?
**A.** 0.01 to 0.1 µM

**Q.** For Cc1ncsc1-c1ccc([C@H](C)NC(=O)[C@@H]2C[C@@H](O)CN2C(=O)[C@@H](NC(=O)CCCc2cccc(NC(=O)[C@H](CCC(N)=O)NC(=O)[C@@H]3Cc4cccc5c4N3C(=O)[C@@H](NC(=O)c3cc4cc(C(=O)P(=O)(O)O)ccc4[nH]3)CC5)c2)C(C)(C)C)cc1 [Compound I-248], which DC50 is on record?
**A.** 0.01 to 0.1 µM

same assay, conditions: read-out: STAT3 HiBiT A549 degradation 24 h: Average external-Abs DC50; A549, 24 h

**Q.** Which DC50 does the source give for CC(=O)N1CC[C@H]2CC[C@@H](C(=O)N[C@@H](CCC(N)=O)COc3cc(C)cc(CCCCC(=O)N[C@H](C(=O)N4C[C@H](O)C[C@H]4C(=O)N[C@@H](C)c4ccc(-c5scnc5C)cc4)C(C)(C)C)c3F)N2C(=O)[C@@H](NC(=O)c2cc3cc(C(=O)P(=O)(O)O)ccc3[nH]2)C1 [Compound I-236, diammonium 2-[[(5S,8S,10aR)-3-acetyl-8-[[(2S)-4-carbamoyl-1-[2-fluoro-3-(4-[[(2S)-1-[(2S,4R)-4-hydroxy-2-[[(1S)-1-[4-(4-methyl-1,3-thiazol-5-yl)phenyl]ethyl]carbamoyl]pyrrolidin-1-yl]-3,3-dimethyl-1-oxobutan-2-yl]carbamoyl]butyl)-5-methylphenoxy]butan-2-yl]carbamoyl]-6-oxo-octahydropyrrolo[1,2-a][1,5]diazocin-5-yl]carbamoyl]-1H-indole-5-carbonylphosphonate] here?
**A.** 0.1 to 1 µM

— US12077555B2, “STAT degraders and uses thereof” (Kymera Therapeutics, Inc., priority 2019, dated 2024)
